Measured values from patent US11649255B2, “Indazoles as hematopoietic progenitor kinase 1 (HPK1) inhibitors and methods using same” (1st Biotherapeutics, Inc., priority 2020, dated 2023).

Target: recombinant human HPK1 (Homo sapiens (Human), UniProt Q92918)
Experiment: HPK1 kinase assay (ADP-Glo)
Assay type: biochemical
Conditions: 25 μM ATP, MBP substrate
In short: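 Activity was read as ADP formed, detected by ADP-Glo luminescence after the reaction of 5 ng recombinant human HPK1 with MBP and ATP (stocks 0.5 μg/μl and 25 μM) for 40 min at 30 °C. Buffer was Tris pH 7.5 with MgCl2, BSA and DTT, with compound in 0.5% DMSO. IC50 came from inhibition curves.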

Chain of recombinant human HPK1 (Q92918 whole entry): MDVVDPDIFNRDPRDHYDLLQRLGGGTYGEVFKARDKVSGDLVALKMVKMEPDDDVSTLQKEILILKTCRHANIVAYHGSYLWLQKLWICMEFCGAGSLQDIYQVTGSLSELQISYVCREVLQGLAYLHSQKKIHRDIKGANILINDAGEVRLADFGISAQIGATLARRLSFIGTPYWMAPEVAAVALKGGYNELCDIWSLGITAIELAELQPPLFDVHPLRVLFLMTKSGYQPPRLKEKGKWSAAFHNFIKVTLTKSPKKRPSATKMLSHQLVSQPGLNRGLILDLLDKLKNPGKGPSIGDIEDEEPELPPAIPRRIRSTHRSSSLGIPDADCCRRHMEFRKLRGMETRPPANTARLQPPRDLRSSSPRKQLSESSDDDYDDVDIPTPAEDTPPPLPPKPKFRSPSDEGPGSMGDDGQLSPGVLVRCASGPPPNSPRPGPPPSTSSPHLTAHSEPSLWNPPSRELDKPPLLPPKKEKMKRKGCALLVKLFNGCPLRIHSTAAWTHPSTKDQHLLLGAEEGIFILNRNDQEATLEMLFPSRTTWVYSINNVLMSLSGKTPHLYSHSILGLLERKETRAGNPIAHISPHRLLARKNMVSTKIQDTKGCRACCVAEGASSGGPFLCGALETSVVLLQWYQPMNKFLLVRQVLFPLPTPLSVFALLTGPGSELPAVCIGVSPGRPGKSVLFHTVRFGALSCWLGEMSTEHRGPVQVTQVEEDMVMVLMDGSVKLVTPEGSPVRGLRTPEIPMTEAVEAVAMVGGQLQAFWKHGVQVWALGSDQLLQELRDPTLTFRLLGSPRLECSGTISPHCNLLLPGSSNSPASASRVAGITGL

Structure (SMILES) | IC50 [nM]
CCCCC(=O)Nc1nc2ccc(-c3c(C)ccc4[nH]ncc34)cc2s1 [Example 9, N-(6-(5-methyl-1H-indazol-4-yl)benzo[d]thiazol-2-yl)pentanamide] | > 1000
CC(=O)Nc1c(F)c(C)c(-c2ccc3nc(NC(=O)[C@@H]4C[C@@H]4F)sc3n2)c2cn[nH]c12 [Example 181, (1S,2S)-N-(5-(7-acetamido-6-fluoro-5-methyl-1H-indazol-4-yl)thiazolo[5,4-b]pyridin-2-yl)-2-fluorocyclopropane-1-carboxamide] | 101 to 500
C[S+]([O-])c1c(F)cc2[nH]ncc2c1-c1ccc2nc(NC(=O)[C@@H]3C[C@@H]3F)sc2n1 (stereo partly drawn) [Example 164, (1S,2S)-2-fluoro-N-(5-(6-fluoro-5-(methylsulfinyl)-1H-indazol-4-yl)thiazolo[5,4-b]pyridin-2-yl)cyclopropane-1-carboxamide] | > 1000
O=C(Nc1nc2ccc(-c3c(Cn4cccn4)ccc4[nH]ncc34)cc2s1)[C@@H]1C[C@@H]1F [Example 38, (1S,2S)-N-(6-(5-((1H-pyrazol-1-yl)methyl)-1H-indazol-4-yl)benzo[d]thiazol-2-yl)-2-fluorocyclopropane-1-carboxamide] | > 1000
CN(C)C(=O)c1c(F)cc(-c2ccc3nc(NC(=O)[C@@H]4C[C@@H]4F)cn3c2)c2cn[nH]c12 [Example 354, 6-fluoro-4-(2-((1S,2S)-2-fluorocyclopropane-1-carboxamido)imidazo[1,2-a]pyridin-6-yl)-N,N-dimethyl-1H-indazole-7-carboxamide] | > 1000
Cc1c(F)cc2[nH]nc(Cl)c2c1-c1ccc2nc(NC(=O)[C@@H]3C[C@@H]3F)sc2c1 [Example 44, (1S,2S)-N-(6-(3-chloro-6-fluoro-5-methyl-1H-indazol-4-yl)benzo[d]thiazol-2-yl)-2-fluorocyclopropane-1-carboxamide] | 501 to 1000
O=C(Nc1nc2ccc(-c3c(Cl)ccc4[nH]ncc34)cc2s1)C1CC1 [Example 16, N-(6-(5-chloro-1H-indazol-4-yl)benzo[d]thiazol-2-yl)cyclopropanecarboxamide] | 101 to 500
O=C(Nc1cn2cc(-c3c(Cl)c(F)c(C(F)F)c4[nH]ncc34)ccc2n1)[C@@H]1C[C@@H]1F [Example 331, (1S,2S)-N-(6-(5-chloro-7-(difluoromethyl)-6-fluoro-1H-indazol-4-yl)imidazo[1,2-a]pyridin-2-yl)-2-fluorocyclopropane-1-carboxamide] | < 100
CCOc1cc(C)c(-c2ccn3nc(NC(=O)[C@@H]4C[C@@H]4F)cc3c2)c2cn[nH]c12 [Example 511, (1S,2S)-N-(5-(7-ethoxy-5-methyl-1H-indazol-4-yl)pyrazolo[1,5-a]pyridin-2-yl)-2-fluorocyclopropane-1-carboxamide] | < 100
CC(NC=O)c1c(F)c(Cl)c(-c2ccc3nc(NC(=O)[C@@H]4C[C@@H]4F)cn3c2)c2cn[nH]c12 (stereo partly drawn) [Example 426, (1S,2S)-N-(6-(5-chloro-6-fluoro-7-(1-formamidoethyl)-1H-indazol-4-yl)imidazo[1,2-a]pyridin-2-yl)-2-fluorocyclopropane-1-carboxamide] | < 100
Cc1c(F)c(C(F)(F)F)c2[nH]ncc2c1-c1ccn2nc(NC(=O)[C@@H]3C[C@@H]3F)cc2c1 [Example 482, (1S,2S)-2-fluoro-N-(5-(6-fluoro-5-methyl-7-(trifluoromethyl)-1H-indazol-4-yl)pyrazolo[1,5-a]pyridin-2-yl)cyclopropane-1-carboxamide] | < 100
O=C(Nc1cc2cc(-c3c(Cl)c(F)c(Br)c4[nH]ncc34)ccn2n1)[C@@H]1C[C@@H]1F [Example 480, (1S,2S)-N-(5-(7-bromo-5-chloro-6-fluoro-1H-indazol-4-yl)pyrazolo[1,5-a]pyridin-2-yl)-2-fluorocyclopropane-1-carboxamide] | < 100
O=C(Nc1nc2ccc(-c3c(F)c(C(F)(F)F)cc4[nH]ncc34)nc2s1)[C@@H]1C[C@@H]1F [Example 171, (1S,2S)-2-fluoro-N-(5-(5-fluoro-6-(trifluoromethyl)-1H-indazol-4-yl)thiazolo[5,4-b]pyridin-2-yl)cyclopropane-1-carboxamide] | > 1000
CSc1ccc(-c2ccc3nc(NC(=O)[C@@H]4C[C@@H]4F)sc3n2)c2cn[nH]c12 [Example 212, (1S,2S)-2-fluoro-N-(5-(7-(methylthio)-1H-indazol-4-yl)thiazolo[5,4-b]pyridin-2-yl)cyclopropane-1-carboxamide] | > 1000
Cc1c(F)c(F)c2[nH]ncc2c1-c1ccc2nc(NC(=O)[C@@H]3C[C@@H]3F)sc2c1 [Example 109, (1S,2S)-N-(6-(6,7-difluoro-5-methyl-1H-indazol-4-yl)benzo[d]thiazol-2-yl)-2-fluorocyclopropane-1-carboxamide] | < 100
COC[C@H](C)c1c(F)c(Cl)c(-c2ccn3nc(NC(=O)[C@@H]4C[C@@H]4F)cc3c2)c2cn[nH]c12 [Example 655, (1S,2S)-N-(5-(5-chloro-6-fluoro-7-((R)-1-methoxypropan-2-yl)-1H-indazol-4-yl)pyrazolo[1,5-a]pyridin-2-yl)-2-fluorocyclopropane-1-carboxamide] | < 100
CN(Nc1c(F)c(Cl)c(-c2ccc3nc(NC(=O)[C@@H]4C[C@@H]4F)cn3c2)c2cn[nH]c12)C(=O)OC(C)(C)C [Example 309, tert-butyl 2-(5-chloro-6-fluoro-4-(2-((1S,2S)-2-fluorocyclopropane-1-carboxamido)imidazo[1,2-a]pyridin-6-yl)-1H-indazol-7-yl)-1-methylhydrazine-1-carboxylate] | < 100
N#C/C=C/c1c(F)c(Cl)c(-c2ccn3nc(NC(=O)[C@@H]4C[C@@H]4F)cc3c2)c2cn[nH]c12 [Example 633, (1S,2S)-N-(5-(5-chloro-7-((E)-2-cyanovinyl)-6-fluoro-1H-indazol-4-yl)pyrazolo[1,5-a]pyridin-2-yl)-2-fluorocyclopropane-1-carboxamide] | < 100
CCOc1c(F)c(CC)c(-c2ccc3nc(NC(=O)[C@@H]4C[C@@H]4F)cn3c2)c2cn[nH]c12 [Example 318, (1S,2S)-N-(6-(7-ethoxy-5-ethyl-6-fluoro-1H-indazol-4-yl)imidazo[1,2-a]pyridin-2-yl)-2-fluorocyclopropane-1-carboxamide] | < 100
CC(=O)Nc1c(F)c(Cl)c(-c2ccc3nc(NC(=O)[C@@H]4C[C@@H]4F)cn3c2)c2cn[nH]c12 [Example 301] | < 100

Other lines, results leading:

IC50 [nM] | Structure (SMILES)
< 100 | CCOc1c(F)c(C)c(-c2ccc3nc(NC(=O)[C@@H]4C[C@@H]4F)cn3c2)c2cn[nH]c12 [Example 288, (1S,2S)-N-(6-(7-ethoxy-6-fluoro-5-methyl-1H-indazol-4-yl)imidazo[1,2-a]pyridin-2-yl)-2-fluorocyclopropane-1-carboxamide]
< 100 | O=C(Nc1cc2cc(-c3c(Cl)c(F)c(OCC4CCCO4)c4[nH]ncc34)ccn2n1)[C@@H]1C[C@@H]1F (stereo partly drawn) [Example 507, (1S,2S)-N-(5-(5-chloro-6-fluoro-7-((tetrahydrofuran-2-yl)methoxy)-1H-indazol-4-yl)pyrazolo[1,5-a]pyridin-2-yl)-2-fluorocyclopropane-1-carboxamide]
< 100 | COc1c(F)cc2[nH]ncc2c1-c1ccc2nc(NC(=O)[C@@H]3C[C@@H]3F)sc2n1 [Example 155, (1S,2S)-2-fluoro-N-(5-(6-fluoro-5-methoxy-1H-indazol-4-yl)thiazolo[5,4-b]pyridin-2-yl)cyclopropane-1-carboxamide]
< 100 | CCN(CC)c1c(F)c(Cl)c(-c2ccc3nc(NC(=O)[C@@H]4C[C@@H]4F)cn3c2)c2cn[nH]c12 [Example 281, (1S,2S)-N-(6-(5-chloro-7-(diethylamino)-6-fluoro-1H-indazol-4-yl)imidazo[1,2-a]pyridin-2-yl)-2-fluorocyclopropane-1-carboxamide]
< 100 | CN(C)C(=O)CSc1c(F)c(Cl)c(-c2ccc3nc(NC(=O)[C@@H]4C[C@@H]4F)sc3c2)c2cn[nH]c12 [Example 99, (1S,2S)-N-(6-(5-chloro-7-((2-(dimethylamino)-2-oxoethyl)thio)-6-fluoro-1H-indazol-4-yl)benzo[d]thiazol-2-yl)-2-fluorocyclopropane-1-carboxamide]
< 100 | NCCSc1c(F)c(Cl)c(-c2ccc3nc(NC(=O)[C@@H]4C[C@@H]4F)sc3c2)c2cn[nH]c12 [Example 70, (1S,2S)-N-(6-(7-((2-aminoethyl)thio)-5-chloro-6-fluoro-1H-indazol-4-yl)benzo[d]thiazol-2-yl)-2-fluorocyclopropane-1-carboxamide]
< 100 | CNC1CCC(N(C)c2c(F)c(Cl)c(-c3ccn4nc(NC(=O)[C@@H]5C[C@@H]5F)cc4c3)c3cn[nH]c23)CC1 (stereo partly drawn) [Example 504, (1S,2S)-N-(5-(5-chloro-6-fluoro-7-(methyl((1R,4R)-4-(methylamino)cyclohexyl)amino)-1H-indazol-4-yl)pyrazolo[1,5-a]pyridin-2-yl)-2-fluorocyclopropane-1-carboxamide]
< 100 | Cc1c(F)c(C(F)F)c2[nH]ncc2c1-c1ccc2nc(NC(=O)[C@@H]3C[C@@H]3F)cn2c1 [Example 343, (1S,2S)-N-(6-(7-(difluoromethyl)-6-fluoro-5-methyl-1H-indazol-4-yl)imidazo[1,2-a]pyridin-2-yl)-2-fluorocyclopropane-1-carboxamide]
< 100 | CCN(CC)c1c(F)c(Cl)c(-c2ccc3nc(NC(=O)[C@@H]4C[C@@H]4F)sc3n2)c2cn[nH]c12 [Example 154, (1S,2S)-N-(5-(5-chloro-7-(diethylamino)-6-fluoro-1H-indazol-4-yl)thiazolo[5,4-b]pyridin-2-yl)-2-fluorocyclopropane-1-carboxamide]
< 100 | O=C(O)NC1CN(c2c(F)c(Cl)c(-c3ccc4nc(NC(=O)[C@@H]5C[C@@H]5F)sc4c3)c3cn[nH]c23)C1 [Example 88, (1-(5-chloro-6-fluoro-4-(2-((1S,2S)-2-fluorocyclopropane-1-carboxamido)benzo[d]thiazol-6-yl)-1H-indazol-7-yl)azetidin-3-yl)carbamic acid]
